Reference: publication PMC12198368, “The mitochondrial methylation potential gates mitoribosome assembly” (Nature Communications, 2025)

Columns and labels:
Assay in all cases: cryo-EM structure of the complex
[1] = target: T1, GTP-binding protein 7 GTPBP7 (Mus musculus, UniProt Q8R2R6); details: 0.5 mM GMPPNP in lysis and resuspension buffers, 10 mM Mg(OAc)2, BS3 cross-linked; pre-hydrolysis (closed) conformation; mtLSU states B1 and B2
T1 construct: gene Mtg1; BS3 cross-linked
T1 sequence (Q8R2R6 1-326): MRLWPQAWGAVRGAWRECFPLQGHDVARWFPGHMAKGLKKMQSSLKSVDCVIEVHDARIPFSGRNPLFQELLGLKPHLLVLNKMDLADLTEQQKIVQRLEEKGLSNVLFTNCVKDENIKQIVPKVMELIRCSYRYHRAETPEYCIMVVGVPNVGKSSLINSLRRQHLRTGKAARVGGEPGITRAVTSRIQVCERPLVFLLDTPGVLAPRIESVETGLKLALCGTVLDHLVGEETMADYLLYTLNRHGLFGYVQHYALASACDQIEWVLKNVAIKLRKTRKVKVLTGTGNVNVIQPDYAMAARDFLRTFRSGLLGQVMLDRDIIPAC

[2] = target: T2, GTP-binding protein 10, GTPBP10 (Mus musculus, UniProt Q8K013); details: 0.5 mM GMPPNP in lysis and resuspension buffers, 10 mM Mg(OAc)2, BS3 cross-linked; relatively poor local resolution, ligand placed in binding pocket; mtLSU states B1 and B2
T2 construct: BS3 cross-linked
T2 sequence (Q8K013 1-366): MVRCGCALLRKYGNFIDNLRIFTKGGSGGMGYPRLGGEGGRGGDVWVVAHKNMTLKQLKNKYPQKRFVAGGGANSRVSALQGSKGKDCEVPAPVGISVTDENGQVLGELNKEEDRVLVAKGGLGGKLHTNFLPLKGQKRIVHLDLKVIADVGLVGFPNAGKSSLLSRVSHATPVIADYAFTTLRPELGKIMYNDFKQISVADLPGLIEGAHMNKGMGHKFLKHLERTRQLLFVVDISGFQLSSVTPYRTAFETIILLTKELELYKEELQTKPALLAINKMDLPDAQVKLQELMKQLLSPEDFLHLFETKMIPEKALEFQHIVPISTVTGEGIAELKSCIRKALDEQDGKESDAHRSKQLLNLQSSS

[3] = target: rRNA methyltransferase 2, MRM2 (Mus musculus, UniProt Q9CPY0); format: binding; details: mtLSU state D; endogenous ligand, not added; SAM-depleted mitochondria; native sample, no GMPPNP
Chain of rRNA methyltransferase 2, MRM2 (Q9CPY0 25-246): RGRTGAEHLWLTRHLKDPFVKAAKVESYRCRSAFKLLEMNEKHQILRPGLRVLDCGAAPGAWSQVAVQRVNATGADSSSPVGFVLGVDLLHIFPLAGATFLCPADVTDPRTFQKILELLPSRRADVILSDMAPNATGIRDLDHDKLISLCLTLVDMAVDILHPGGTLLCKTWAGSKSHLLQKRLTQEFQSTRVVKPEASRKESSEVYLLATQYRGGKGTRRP

Nc1nc2c(ncn2[C@@H]2O[C@H](COP(=O)(O)OP(=O)(O)NP(=O)(O)O)[C@@H](O)[C@H]2O)c(=O)[nH]1 [GMPPNP]
cryo-EM structure of the complex [1]: GTPBP7 adopts its GMPPNP-bound pre-hydrolysis conformation as observed previously
cryo-EM structure of the complex [2]: A molecule of GMPPNP was placed in the binding pockets of GTPBP7 and GTPBP10.

Nc1ncnc2c1ncn2[C@@H]1O[C@H](CSCC[C@H](N)C(=O)O)[C@@H](O)[C@H]1O [SAH]
cryo-EM structure of the complex [3]: A molecule of SAH was placed in the binding pocket of MRM2
